The numbers were not newly measured in patent publication US20210236583A1, “Targeting the renin-angiotensin system for treatment of environment-and pathogen-induced lung injury” (priority 2020, published 2021), which cites them from elsewhere.

The test system of the data set is mice. Particulars: direct injection of recombinant ACE2 protein.

“recombinant ACE2 protein: recombinant ACE2 protein injected directly, from the literature (Imai et al., 2005)”: the “protection from severe acute lung injury” value is recorded as “protect mice from severe acute lung injury”.
